Activity calls are given as the source filed them.
Key:
[1] = Drug uptake in BALB/c mouse colon at 20 mg/kg,ip administrated for 2 hrs by LC-MS analysis; format: ADME, organism-based; conditions: in vivo
HCT-116 [2] = assay: Antiproliferative activity against human HCT-116 cells assessed as inhibition of colony formation incubated for 2 weeks by crystal violet staining method; format: functional, cell-based
RKO [3] = assay: Antiproliferative activity against human RKO cells assessed as inhibition of colony formation incubated for 2 weeks by crystal violet staining method; format: functional, cell-based
HCT-116 [4] = assay: Induction of cell cycle arrest in human HCT-116 cells assessed as accumulation of cells at G2/M phase incubated for 48 hrs by propidium iodide staining based flow cytometry; format: functional
HCT-116 [5] = assay: Induction of cell cycle arrest in human HCT-116 cells assessed as downregulation of cyclin B1 expression at 1.5 to 6 uM by immunoblotting analysis; format: functional, cell-based; conditions: dose 1.5-6 µM
RKO [6] = assay: Induction of cell cycle arrest in human RKO cells assessed as downregulation of cyclin B1 expression at 1.5 to 6 uM by immunoblotting analysis; format: functional, cell-based; conditions: dose 1.5-6 µM
HCT-116 [7] = assay: Anti-migration activity in human HCT-116 cells assessed as downregulation of FAK phosphorylation by Western blotting analysis; format: functional, cell-based
HCT-116 [8] = assay: Anti-migration activity in human HCT-116 cells assessed as change in FAK expression at 3 to 12 uM by Western blotting analysis; format: functional, cell-based; conditions: dose 3-12 µM
SW480 [9] = assay: Anti-migration activity in human SW480 cells assessed as loss of actin cytoskeletal fibers at 3 to 12 uM by immunofluorescence assay; format: functional, cell-based; conditions: dose 3-12 µM
SW480 [10] = assay: Anti-migration activity in human SW480 cells assessed as change in FAK distribution at 3 to 12 uM by immunofluorescence assay; format: functional, cell-based; conditions: dose 3-12 µM
SW480 [11] = assay: Anti-migration activity in human SW480 cells assessed as upregulation of E-cad expression by Western blotting analysis; format: functional, cell-based
[12] = Toxicity in ICR mouse assessed as change in body weight at 20 mg/kg,po administrated for 1 week; format: organism-based; conditions: in vivo, 168 h, time 1 weeks
[13] = Toxicity in ICR mouse assessed as change in liver weight at 20 mg/kg,po administrated for 1 week; format: organism-based; conditions: in vivo, 168 h, time 1 weeks
[14] = Toxicity in ICR mouse assessed as change in liver weight at 60 mg/kg,po administrated for 1 week; format: organism-based; conditions: in vivo, 168 h, time 1 weeks
[15] = Toxicity in ICR mouse assessed as change in kidney weight at 20 mg/kg,po administrated for 1 week; format: organism-based; conditions: in vivo, 168 h, time 1 weeks
[16] = Hepatotoxicity in ICR mouse assessed as change in serum creatinine level at 20 mg/kg,po administrated for 1 week; format: toxicity, organism-based; conditions: in vivo, 168 h, time 1 weeks
[17] = Hepatotoxicity in ICR mouse assessed as change in serum creatinine level at 60 mg/kg,po administrated for 1 week; format: toxicity, organism-based; conditions: in vivo, 168 h, time 1 weeks
[18] = Hepatotoxicity in ICR mouse assessed as change in serum AST level at 20 mg/kg,po administrated for 1 week; format: toxicity, organism-based; conditions: in vivo, 168 h, time 1 weeks
[19] = Hepatotoxicity in ICR mouse assessed as change in serum ALT level at 60 mg/kg,po administrated for 1 week; format: toxicity, organism-based; conditions: in vivo, 168 h, time 1 weeks
[20] = Toxicity in ICR mouse assessed as histopathological change in liver at 20 mg/kg,po administrated for 1 week by hematoxylin and eosin staining analysis; format: organism-based; conditions: in vivo, 168 h, time 1 weeks
[21] = Toxicity in ICR mouse assessed as histopathological change in kidney at 20 mg/kg,po administrated for 1 week by hematoxylin and eosin staining analysis; format: organism-based; conditions: in vivo, 168 h, time 1 weeks
[22] = Toxicity in BALB/c mouse xenografted with human HCT-116 cells assessed as change in liver weight at 10 mg/kg,ip administrated for 2 weeks; format: organism-based; conditions: in vivo, 336 h
[23] = Toxicity in BALB/c mouse xenografted with human HCT-116 cells assessed as change in spleen weight at 20 mg/kg,ip administrated for 2 weeks; format: organism-based; conditions: in vivo, 336 h
[24] = Toxicity in BALB/c mouse xenografted with human HCT-116 cells assessed as change in kidney weight at 10 mg/kg,ip administrated for 2 weeks; format: organism-based; conditions: in vivo, 336 h
[25] = Toxicity in BALB/c mouse xenografted with human HCT-116 cells assessed as change in kidney weight at 20 mg/kg,ip administrated for 2 weeks; format: organism-based; conditions: in vivo, 336 h
HCT-116 [26] = assay: Antitumor activity against human HCT-116 cells xenografted in BALB/c mouse assessed as chromatin condensation at 20 mg/kg,ip administrated for 2 weeks by hematoxylin and eosin staining based analysis; format: functional, organism-based
[27] = Toxicity in BALB/c mouse xenografted with human HCT-116 cells assessed as histopathological change in liver at 10 mg/kg,ip administrated for 2 weeks by hematoxylin and eosin staining based analysis; format: organism-based; conditions: in vivo, 336 h
[28] = Toxicity in BALB/c mouse xenografted with human HCT-116 cells assessed as histopathological change in kidney at 10 mg/kg,ip administrated for 2 weeks by hematoxylin and eosin staining based analysis; format: organism-based; conditions: in vivo, 336 h
[29] = Toxicity in BALB/c mouse xenografted with human HCT-116 cells assessed as change in serum creatinine level at 20 mg/kg,ip administrated for 2 weeks; format: organism-based; conditions: in vivo, 336 h
[30] = Toxicity in BALB/c mouse xenografted with human HCT-116 cells assessed as change in serum AST level at 10 mg/kg,ip administrated for 2 weeks; format: organism-based; conditions: in vivo, 336 h
[31] = Toxicity in BALB/c mouse xenografted with human HCT-116 cells assessed as change in serum AST level at 20 mg/kg,ip administrated for 2 weeks; format: organism-based; conditions: in vivo, 336 h
HCT-116 [32] = assay: Antitumor activity against human HCT-116 cells xenografted in BALB/c mouse assessed as downregulation of N-cad expression in tumor at 10 mg/kg,ip administrated for 2 weeks by Western blotting analysis; format: functional, organism-based
HCT-116 [33] = assay: Antitumor activity against human HCT-116 cells xenografted in BALB/c mouse assessed as downregulation of N-cad expression in tumor at 20 mg/kg,ip administrated for 2 weeks by Western blotting analysis; format: functional, organism-based
HCT-116 [34] = assay: Antitumor activity against human HCT-116 cells xenografted in BALB/c mouse assessed as downregulation of FAK expression in tumor at 20 mg/kg,ip administrated for 2 weeks by Western blotting analysis; format: functional, organism-based
HCT-116 [35] = assay: Antitumor activity against human HCT-116 cells xenografted in BALB/c mouse assessed as downregulation of FAK phosphorylation in tumor at 10 mg/kg,ip administrated for 2 weeks by Western blotting analysis; format: functional, organism-based
HCT-116 [36] = assay: Antitumor activity against human HCT-116 cells xenografted in BALB/c mouse assessed as downregulation of FAK phosphorylation in tumor at 20 mg/kg,ip administrated for 2 weeks by Western blotting analysis; format: functional, organism-based
HCT-116 [37] = assay: Antitumor activity against human HCT-116 cells xenografted in BALB/c mouse assessed as downregulation of FGFR4 signalling pathway in tumor at 10 mg/kg,ip administrated for 2 weeks by Western blotting analysis; format: functional, organism-based
HCT-116 [38] = assay: Antitumor activity against human HCT-116 cells xenografted in BALB/c mouse assessed as decrease in FAK expression in tumor tissue at ip administrated for 2 weeks by immunohistochemical analysis; format: functional, organism-based
HCT-116 [39] = assay: Antitumor activity against human HCT-116 cells xenografted in BALB/c mouse assessed as decrease in E-Cad expression in tumor tissue at ip administrated for 2 weeks by immunohistochemical analysis; format: functional, organism-based
SW480 [40] = assay: cells; conditions: Homo sapiens, SW480, 48 h
Description: Antiproliferative activity against human SW480 cells assessed as inhibition of cell growth incubated for 48 hrs by MTT assay

C=CC(=O)NCCCn1c(=O)c(-c2c(Cl)c(OC)cc(OC)c2Cl)cc2cnc(Nc3c(C)cccc3NC(=O)C=C)cc21
Non-Toxic: Activity [12] | Activity [13] | Activity [14] | Activity [15] | Activity [16] | Activity [17] | Activity [18] | Activity [19] | Activity [20] | Activity [21] | Activity [22] | Activity [23] | Activity [24] | Activity [25] | Activity [27] | Activity [28] | Activity [29] | Activity [30] | Activity [31]
Active: Drug uptake [1]
active: Activity (HCT-116 [2]) Dose-Dependent Effect | Activity (RKO [3]) Dose-Dependent Effect | Activity (HCT-116 [4]) Dose-Dependent Effect | Activity (HCT-116 [5]) | Activity (RKO [6]) | Activity (HCT-116 [7]) Dose-Dependent Effect | Activity (SW480 [9]) | Activity (SW480 [10]) | Activity (SW480 [11]) Dose-Dependent Effect | Activity (HCT-116 [26]) | Activity (HCT-116 [32]) | Activity (HCT-116 [33]) | Activity (HCT-116 [34]) | Activity (HCT-116 [35]) | Activity (HCT-116 [36]) | Activity (HCT-116 [37]) | Activity (HCT-116 [38]) Dose-Dependent Effect | Activity (HCT-116 [39]) Dose-Dependent Effect
6.99 µM: IC50 (SW480 [40])
inactive: Activity (HCT-116 [8])
